Test results as given in patent US12427212B2, “Nectin-4 binding miniproteins, conjugates and uses thereof” (Aktis Oncology, Inc., priority 2023, dated 2025).
“Also recorded” adds a separate entry of the source. Like-named read-outs stand apart in the source and are kept apart here. Bridges are numbered along the chain shown (N, C = ends). Primed or numbered codes have the meaning given here. [ ]: non-standard residue; d: D form. The star is where a group is joined. DOTA = O=C(O)CN1CCN(CC(=O)O)CCN(CC(=O)*)CCN(CC(=O)O)CC1; Lys(Me3) = C[N+](C)(C)CCCC[C@H](N)C(=O)O; Cit = NC(=O)NCCC[C@H](N)C(=O)O; PEG4 = NCCOCCOCCOCCOCCC(=O)O; PEG4′ = not defined here

How the values were obtained:
[1] = In vitro metabolic stability in serum/plasma (percent parent remaining, LC-MS); assay type: in vitro ADME; details: mouse
Procedure: Exemplary miniproteins were spiked into biological matrices at initial concentration between 1-2 μM. Tested matrices were varied by species (mouse, rat, human) and type (plasma, serum, and kidney brush border membrane (kBBM) preparations tested each from 0.625-100 μg/mL protein content). Tested conditions were incubated with miniproteins at 37° C. for 4 h. At collection points of 0, 15, 30, 60, 120, 240 minutes, 50 μL of each condition were quenched by organic solvent (methanol or acetonitrile) or the addition of 4% phosphoric acid solution followed by solid-phase extraction. Fractions of each quenched timepoint were subsequently assayed for parent miniproteins concentration by high resolution LC-MS. Percent-parent-remaining-time plots were constructed from the ratio of each given time collection to the time-zero parent miniprotein. Percent-parent-remaining in mouse serum and plasma for exemplary miniproteins are recorded in TABLE 11.

[2] = Biodistribution of radiolabeled miniprotein conjugates by SPECT/CT, HT-1376-OE xenograft; details: female, mouse, in vivo, iv, Kidneys; for tissue uptake at 4 h: 4 h (% ID/g) Average; for tissue uptake at 22 h: 22 h (% ID/g) Average
Procedure: 6-8 week old female mice were engrafted through subcutaneous injection with cultured 3.0×10^6 HT-1376-OE cells (1:1—Cells:Matrigel). HT-1376-OE is a model cell line that highly expresses Nectin-4. Fourteen (14) days later, the mice were each dosed with a radiolabeled miniprotein, for example at a dose of ˜350 μCi/3.5 μg miniprotein. SPECT and/or CT imaging of the mice was done at timepoints between 15 min to 24 h after the administration of the injected dose, such as 4 h and 22 h (static scanning). Initial SPECT and/or CT rapid dynamic scanning was done at time points between 15 min and 75 min after the administration of the injected dose. For each miniprotein tested, a group of three mice were used, as summarized below in TABLE 16A.

[3] = In vivo biodistribution of 111In-labeled miniproteins by SPECT/CT, HT-1376 xenograft; parameters: species or system mouse; details: female, athymic nude, mouse, in vivo
Outline: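 Mice bearing HT-1376 (Nectin-4-expressing human) xenografts imaged by SPECT/CT after 111In-labeled miniprotein dosing. SPECT reported as activity; per-subject maximum intensity projections scaled in % ID/g at each time point.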

[4] = Thermal stability assay, 75° C., HPLC; assay type: physicochemical; details: 1 mg/mL, 0.9% saline solution
Procedure: The thermal stability of an exemplary compound, C215, was analyzed at a concentration of 1 mg/mL at 75° C., in 0.9% saline solution. A heating plate was set to 75° C. and the sample was heated for a period of one h. The vial was shaken prior to collecting 10 μL aliquots at 5, 10, 15, 30, and 60 minute time intervals. The % parent remaining was analyzed by HPLC using the following system and method: Analytical Agilent 1100 HPLC system using a 4.6×250 mm, 300 Angstrom. BEH300, 5 μm, Xbridge C18 column at 1.0 mL/min. The solvent system consisted of A=Water+0.1% TFA, B=Acetonitrile+0.1% TFA. The gradient consisted of 5% to 70% B over 15 minutes, then the column was washed and equilibrated to initial conditions.

HT-1376 cells = experiment: Internalization assay of indium-111 radiolabeled conjugate, HT-1376; assay type: cell-based, human; details: 37° C. or 4° C., 1 h
Procedure: (§1) Internalization was assessed for indium-111 radiolabeled C215 in HT-1376 and MCF7 cells. Cells were incubated in the presence of radioligand or radioligand plus 1000 times excess unlabeled compound (C215) at 37° C., or 4° C. for 1 h. At the end of incubation cells were washed four times with PBS and membrane bound radioligand was removed by three 0.5% trypsin washes. Cell suspensions were washed three times by method of centrifugation and removal of supernatant. Internalized radioactivity was measured by gamma counting cell pellets and cell number was determined by counting cells on an automatic cell counter. […] C215, in HT-1376 (FIG. 6A) and MCF7 cell lines (FIG. 6B).

[5] = test system: HT-1376 urothelial cancer cells; experiment: In vitro cell cytotoxicity assay of 225Ac-radioconjugates (CellTiter-Glo); assay type: cell-based, human; details: compound radiolabeled with 225Ac, 24 h treatment, 4-5 day regrowth, HT-1376 cells
Procedure: Cytotoxicity to ^225Ac-radioconjugates was assessed in HT-1376 urothelial cancer cells. Cells were seeded in 96-well plates at densities of 250 to 1000 cells per well two days prior to treatment. On the day of treatment ^225Ac-radioconjugates were diluted in culture medium to concentrations ranging from 0,0001 to 100 μCi/mL and treatment solutions were incubated with cells for 24 h. At the end of the treatment period, the treatment solution was removed, and fresh culture medium was replenished for the regrowth period of the assay that lasted 4-5 day's. At the end of the regrowth period the culture medium was removed and viability was assessed by CellTiter-Glo (Promega, Waltham MA) luminescent assay and the plates were read on a Perkin Elmer Enspire multimode plate reader. Data were normalized to treatment controls and plotted as non-linear sigmoidal dose response curves to determine the effective concentration for 50% reduction in cell viability.

MCF7 cells = experiment: Internalization assay of indium-111 radiolabeled conjugate, MCF7; assay type: cell-based, human; details: 37° C. or 4° C., 1 h
Procedure: as §1

Nectin-4 [6] = target: T1, Nectin-4 (Homo sapiens, UniProt Q96NY8); experiment: DELFIA competitive binding assay (Ki) against Eu-labeled C307 on HT-1376 cells; details: in the presence of europium-labeled C307
T1 sequence (Q96NY8 32-510): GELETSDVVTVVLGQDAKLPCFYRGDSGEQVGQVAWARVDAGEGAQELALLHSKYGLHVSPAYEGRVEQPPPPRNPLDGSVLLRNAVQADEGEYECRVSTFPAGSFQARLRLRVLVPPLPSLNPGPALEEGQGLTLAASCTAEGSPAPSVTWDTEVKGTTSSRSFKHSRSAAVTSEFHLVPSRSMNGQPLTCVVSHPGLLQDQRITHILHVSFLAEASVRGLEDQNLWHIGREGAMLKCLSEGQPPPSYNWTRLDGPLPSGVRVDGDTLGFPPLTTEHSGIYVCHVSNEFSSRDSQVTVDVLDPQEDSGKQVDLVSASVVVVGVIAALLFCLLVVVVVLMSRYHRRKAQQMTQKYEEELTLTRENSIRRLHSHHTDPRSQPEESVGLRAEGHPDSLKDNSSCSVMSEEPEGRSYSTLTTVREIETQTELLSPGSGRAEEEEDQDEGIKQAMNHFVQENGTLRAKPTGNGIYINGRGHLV
Procedure: A competition binding assay was utilized to determine the Ki for miniproteins bound to Nectin-4 expressed on the surface of cancer cells. […] Miniprotein incubations occurred for 90 min to reach binding equilibrium. […] After miniprotein incubations, the wells were washed to remove unbound ligand and treated according to manufacturer instructions for a DELFIA® (dissociation-enhanced lanthanide fluorescent immunoassay, Revvity Health Sciences). In brief, washed wells were incubated with 15 μL of 2 M HCl for 2 h at 37° C., after which 17 μL of 2 M NaOH and 30 μL of DELFIA® enhancement solution were added to each well and incubated for an additional 30 min. The remaining Eu reacted with the DELFIA® enhancer solution to generate fluorescence measured on the Envision instrument. Relative fluorescence units (RFUs) were measured as a function of test article concentration in order to calculate an IC50.
A whole cell binding assay was used to estimate the equilibrium binding affinity (KD) or binding inhibition constant (Ki) of miniprotein ligands to cells expressing a target of interest. Cells were dispensed into a 384-well plate and incubated at 37° C., in 5% CO2 overnight. The next day cells were gently washed once in assay buffer prior to addition of europium chelated ligand. […] For Ki determination, a single concentration (KD equivalent concentration) of europium-chelate miniprotein was added to each well followed immediately by the addition of unconjugated competing ligand over 12 different concentrations ranging from 100 times below and above expected Ki values as before. The plate was incubated for 1.5 h at room temperature to reach binding equilibrium. Cells were then washed three times at room temperature with 1×PBS followed by the addition of 2 M HCl and incubated for two h at 37° C. Following this step, 2 M NaOH and fluorescent inducer solution were added to each well and incubated for 30 minutes at room temperature according to the manufacturer's protocol (Perkin-ELMER DELFIA assay). Plates were read on an Envision plate reader and a curve-fitting model was applied to estimate KD and Ki values using GraphPad Prism software.
Engineered Nectin-4 miniproteins with further modified lysine residues (C298-C304; as described in Example 4B) were evaluated for their ability to bind to Nectin-4.

[7] = test system: un-transfected HEK293 cells; experiment: Background binding to un-transfected HEK293 cells (cell microarray suitability); assay type: cell-based, human; details: biotin-labeled molecules
Procedure: To evaluate potential off-target binding, six biotin-labeled molecules were tested in a cell microarray platform having 6,416 different human proteins spanning diverse functions and subcellular locations.

Nectin-4 [8] = target: T1, Nectin-4; experiment: Flow cytometry binding to Nectin-4-expressing (HT-1376-P) and knockout (HT-1376-KO) cells; assay type: cell-based; details: biotinylated miniprotein
Procedure: Fluorescent imaging for Nectin-4 binding was conducted using assays as described in Example 3. Briefly. Nectin-4 knockout HT-1376 cells were generated via CRISPR/Cas9 mediated gene deletion followed by single cell cloning. […] Flow cytometry was performed to measure on-target binding to cell surface Nectin-4.

| Compound | half-life [1] [h] | half-life ([1]; plasma) [h] | tissue uptake at 4 h [2] [%ID/g] | tissue uptake at 22 h [2] [%ID/g] | tissue uptake at 4 h [3] [%ID/g] | tissue uptake at 24 h [3] [%ID/g] | EC50 (microcurie/milliliter) for 225Ac radioconjugates [5] [microcurie/milliliter] | further results |
| --- | --- | --- | --- | --- | --- | --- | --- | --- |
| {DOTA-PEG4}-CDYDEQFFTALA[Cit]LRGGDICEYIQA[Lys(Me3)]FQYLPGLCIEEILDNLGCS-OH (disulfide 1-34, 20-44 (inferred)) [Compound C260] | 11.2 | > 12 | 11.6 | 6.92 | 12.8 | 7.36 | – | – |
| C215 ({DOTA-PEG4′}-CEYDEEFFTALKRLRGGDICYYIKKKFKKVPKLCIEEILDKLGC-NH2; cysteine pairing not given here) [Compound C215] | – | – | – | – | – | – | 0.086 | thermal stability, % parent remaining [4]: remain stable over 60 min; internalization of radioconjugate (HT-1376 cells): successfully internalized into cells; internalization of radioconjugate (MCF7 cells): successfully internalized into cells |
| {DOTA-PEG4}-CEYDEEFFTALARLRGGDICQYIQAKFQYLPGQCIEEILDNLGCS-OH (disulfide 1-34, 20-44) [Compound C244] | > 12 | > 12 | 29.5 | 17.8 | 27.7 | 15.9 | – | – |
| C214 ({DOTA-PEG4′}-CEYDEEFFTALKRLRGGDICYYIKKKFDYLPKLCIEEILDNLGC-NH2; disulfide 1-34, 20-44) [Compound C214] | – | – | – | – | – | – | 0.014 | – |
| CC[C@H](C)[C@@H]1NC(=O)[C@H](Cc2ccc(O)cc2)NC(=O)[C@H](CCC(N)=O)NC(=O)[C@@H]2CSSC[C@@H](C(=O)N[C@@H](CO)C(=O)O)NC(=O)CNC(=O)[C@H](CC(C)C)NC(=O)[C@H](CC(N)=O)NC(=O)[C@H](CC(=O)O)NC(=O)[C@H](CC(C)C)NC(=O)[C@H]([C@@H](C)CC)NC(=O)[C@H](CCC(=O)O)NC(=O)[C@H](CCC(=O)O)NC(=O)[C@H]([C@@H](C)CC)NC(=O)[C@H](CSSC[C@H](NC(=O)CCOCCOCCOCCOCCNC(=O)CCCC[C@@H]3SC[C@@H]4NC(=O)N[C@@H]43)C(=O)N[C@@H](CCC(=O)O)C(=O)N[C@@H](Cc3ccc(O)cc3)C(=O)N[C@@H](CC(=O)O)C(=O)N[C@@H](CCC(=O)O)C(=O)N[C@@H](CCC(=O)O)C(=O)N[C@@H](Cc3ccccc3)C(=O)N[C@@H](Cc3ccccc3)C(=O)N[C@@H]([C@@H](C)O)C(=O)N[C@@H](C)C(=O)N[C@@H](CC(C)C)C(=O)N[C@@H](C)C(=O)N[C@@H](CCCNC(=N)N)C(=O)N[C@@H](CC(C)C)C(=O)N[C@@H](CCCNC(=N)N)C(=O)NCC(=O)NCC(=O)N[C@@H](CC(=O)O)C(=O)N[C@@H]([C@@H](C)CC)C(=O)N2)NC(=O)[C@H](CC(C)C)NC(=O)[C@H](C)NC(=O)[C@@H]2CCCN2C(=O)[C@H](CC(C)C)NC(=O)[C@H](Cc2ccc(O)cc2)NC(=O)[C@H](CCC(N)=O)NC(=O)[C@H](Cc2ccccc2)NC(=O)[C@H](CCCC[N+](C)(C)C)NC(=O)[C@H](C)NC(=O)[C@H](CCC(N)=O)NC1=O [Compound C253] | – | – | – | – | – | – | – | binding to endogenous Nectin-4 expressed on HT-1376 cells (FIG. 21) (Nectin-4 [6]): high binding affinity; Background binding to un-transfected HEK293 cells [7]: low-background binding; on-target binding to cell surface Nectin-4, HT-1376-P versus HT-1376-KO cells (Nectin-4 [8]): potent and highly selective Nectin-4 targeting agent; also recorded: selective target binding |
| {DOTA-PEG4}-CEYDEQFFTALKALRGGDICYYIQASFNYLPDLCIEEILDNLGCS-OH (disulfide 1-34, 20-44 (inferred)) [Compound C113] | – | – | – | – | – | – | 0.042 | tissue uptake at 4 h ([3]; 111In-labeled miniprotein, SPECT/CT, kidneys, 4 h post-dosing, n=3 mice, read-out: Biodistribution, Kidneys, 4 h (% ID/g) Average): 87.9 %ID/g; tissue uptake at 24 h ([3]; 111In-labeled miniprotein, SPECT/CT, kidneys, 24 h post-dosing, n=3 mice, read-out: Biodistribution, Kidneys, 24 h (% ID/g) Average): 42.7 %ID/g |
